In patent US11337950B2, “Biologically active cannabidiol analogs” (University of Mississippi, priority 2016, dated 2022):
Several values for one entry are separate records, joined by “and”; a condition that tells them apart may be missing. Equal entries are not always repeated.

Experiments:
[1] = Plasma and organ concentrations of CBD and CBD-Mono-VHS after IP administration (Example 22); type: in vivo; conditions: mice, IP, Low Dose (30 μg CBD/mouse), 70 Minutes, individual animals, listed as CBD-Mono-Val-Mono-HS
Experimental: CBD-Mono-VHS was administered intraperitoneally to mice at 2 doses (30 μg and 60 μg equivalent of CBD/mouse). Seventy minutes after dosing the animals (3 mice in each dose group), all animals were sacrificed. Blood, as well as organs (liver, spleen, kidney, and brain), were harvested for LC-MS/MS analysis of their content of both CBD and CBD-Mono-VHS.
Also shown is the concentration of CBD-Mono-VHS in the plasma 70 minutes after dosing.

[2] = Organ distribution of CBD-Mono-VHS after oral administration (Example 19); type: in vivo, rats; conditions: rat, oral 4 mg/animal
Experimental: To determine whether CBD-Mono-VHS reaches the organs and especially the brain, two cannulated rats were administered same dose as those in Example 18. One rat was sacrificed at 2 hr. after dosing and the other at 4 hr. after dosing and the organs were harvested (brain, liver, and spleen) as well as blood for analysis.

[3] = Oral bioavailability of CBD-Mono-VHS in sesame seed oil (Example 18); type: in vivo; conditions: rats; for Plasma Concentration of CBD-Mono-VHS, Average / Plasma Concentration of CBD-Mono-VHS: oral 4 mg/animal in sesame seed oil; for Plasma Concentration of CBD-Mono-VHS: individual animals
Experimental: CBD-Mono-VHS was formulated in a sesame seed oil (Welch, Holme and Clark Co. lot #39375) formulation composed of 40 mg/mL solution of the drug substance/mi. Animals (cannulated rats, n=4) were dosed 100 μl of the oil solution by oral gavage. Blood samples were collected at 0, 0.25, 0.5, 1, 2, 4, 6, 8, and 24 hr. after dosing. The blood samples were centrifuged and the plasma was analyzed for CBD-Mono-VHS. Table 7 and FIG. 5 show the results, with very high blood levels which remain significant (>10 ng/mL) at 24 hr. after dosing.

[4] = Bioavailability of CBD-Mono-VHS from a hydrophilic suppository, PEG 1000 (Example 17); type: in vivo; design: unit not given here; conditions: rats, rectal 7.5 mg, Hydrophilic (PEG 1000) Suppository; for Plasma Concentration of CBD-Mono-VHS: individual animals
Experimental: CBD-Mono-Val-Mono-HS was formulated in PEG 1000 suppository base (a hydrophilic suppository base) at 75 mg/mL of melted base. The study was carried out in a cannulated rat model. Three animals were administered 100 μl. each of the semisolid formulation for a rectal dose of 7.5 mg CBD-Mono-VHS. […] The blood was centrifuged and the plasma was used for LC-MS/MS analysis.

C=C(C)C1CCC(C)=CC1c1c(O)cc(CCCCC)cc1OC(=O)[C@@H](NC(=O)CCC(=O)O)C(C)C (stereo partly drawn) [CBD-Mono-VHS, CBD-Mono-Valinate-Mono-Hemisuccinate]
Total CBD-Mono-Val-Mono-HS, Liver [1]: 1431.98 ng and 534.11 ng and 1543.96 ng | Total CBD-Mono-Val-Mono-HS, Spleen [1]: 105.24 ng and 283.02 ng and 150.36 ng | Total CBD-Mono-Val-Mono-HS, Total ([1]; sum of the columns): 1670.831 ng and 941.765 ng and 1855.656 ng | Organ level of CBD-Mono-VHS, BRAIN ([2]; 2 HR): 556 ng/organ | Organ level of CBD-Mono-VHS, LIVER ([2]; 2 HR): 66484 ng/organ | Organ level of CBD-Mono-VHS, SPLEEN ([2]; 2 HR): 1438 ng/organ | Plasma level of CBD-Mono-VHS ([2]; 2 HR): 285 ng/mL | Organ level of CBD-Mono-VHS, BRAIN ([2]; 4 HR): 205 ng/organ | Organ level of CBD-Mono-VHS, LIVER ([2]; 4 HR): 8301 ng/organ | Organ level of CBD-Mono-VHS, SPLEEN ([2]; 4 HR): 392 ng/organ | Plasma level of CBD-Mono-VHS ([2]; 4 HR): 53 ng/mL | Plasma Concentration of CBD-Mono-VHS, Average ([3]; 0 hr): 0.0 ng/mL | Plasma Concentration of CBD-Mono-VHS ([3]; 0 hr): 0.0 ng/mL | Plasma Concentration of CBD-Mono-VHS, Average ([3]; 0.25 hr): 1029.0 ng/mL | Plasma Concentration of CBD-Mono-VHS ([3]; 0.25 hr): 1255.5 ng/mL and 1512.3 ng/mL and 370.2 ng/mL and 978.0 ng/mL | Plasma Concentration of CBD-Mono-VHS, Average ([3]; 0.5 hr): 1626.3 ng/mL | Plasma Concentration of CBD-Mono-VHS ([3]; 0.5 hr): 1174.8 ng/mL and 2655.0 ng/mL and 1437.1 ng/mL and 1238.2 ng/mL | Plasma Concentration of CBD-Mono-VHS, Average ([3]; 1 hr): 2127.5 ng/mL | Plasma Concentration of CBD-Mono-VHS ([3]; 1 hr): 1400.6 ng/mL and 3120.9 ng/mL and 2496.6 ng/mL and 1492.0 ng/mL | Plasma Concentration of CBD-Mono-VHS, Average ([3]; 2 hr): 593.5 ng/mL | Plasma Concentration of CBD-Mono-VHS ([3]; 2 hr): 392.2 ng/mL and 1317.3 ng/mL and 399.5 ng/mL and 264.8 ng/mL | Plasma Concentration of CBD-Mono-VHS, Average ([3]; 4 hr): 234.8 ng/mL | Plasma Concentration of CBD-Mono-VHS ([3]; 4 hr): 115.1 ng/mL and 423.3 ng/mL and 116.1 ng/mL and 284.8 ng/mL | Plasma Concentration of CBD-Mono-VHS, Average ([3]; 6 hr): 212.0 ng/mL | Plasma Concentration of CBD-Mono-VHS ([3]; 6 hr): 71.4 ng/mL and 181.0 ng/mL and 397.8 ng/mL and 197.8 ng/mL | Plasma Concentration of CBD-Mono-VHS, Average ([3]; 8 hr): 152.2 ng/mL | Plasma Concentration of CBD-Mono-VHS ([3]; 8 hr): 44.6 ng/mL and 89.8 ng/mL and 210.0 ng/mL and 264.4 ng/mL | Plasma Concentration of CBD-Mono-VHS, Average ([3]; 24 hr): 27.2 ng/mL | Plasma Concentration of CBD-Mono-VHS ([3]; 24 hr): 6.5 ng/mL and 37.8 ng/mL and 47.1 ng/mL and 17.5 ng/mL | blood levels which remain significant at 24 hr. after dosing ([3]; oral 4 mg/animal, 24 hr): > 10 ng/mL | Plasma Concentration of CBD-Mono-VHS, Average ([4]; 0 hr): 0.0 | Plasma Concentration of CBD-Mono-VHS ([4]; 0 hr): 0.0 | Plasma Concentration of CBD-Mono-VHS, Average ([4]; 0.25 hr): 13.2 | Plasma Concentration of CBD-Mono-VHS ([4]; 0.25 hr): 14.7 and 10.1 and 14.8 | Plasma Concentration of CBD-Mono-VHS, Average ([4]; 0.5 hr): 38.5 | Plasma Concentration of CBD-Mono-VHS ([4]; 0.5 hr): 44.2 and 38.4 and 32.9 | Plasma Concentration of CBD-Mono-VHS, Average ([4]; 1 hr): 89.4 | Plasma Concentration of CBD-Mono-VHS ([4]; 1 hr): 106.0 and 54.3 and 108.0 | Plasma Concentration of CBD-Mono-VHS, Average ([4]; 2 hr): 114.7 | Plasma Concentration of CBD-Mono-VHS ([4]; 2 hr): 108.0 and 123.0 and 113.0 | Plasma Concentration of CBD-Mono-VHS, Average ([4]; 4 hr): 57.2 | Plasma Concentration of CBD-Mono-VHS ([4]; 4 hr): 57.5 and 60.5 and 53.5 | Plasma Concentration of CBD-Mono-VHS, Average ([4]; 6 hr): 28.7 | Plasma Concentration of CBD-Mono-VHS ([4]; 6 hr): 18.6 and 37.4 and 30.1 | Plasma Concentration of CBD-Mono-VHS, Average ([4]; 8 hr): 24.0 | Plasma Concentration of CBD-Mono-VHS ([4]; 8 hr): 44.8 and 21.6 and 27.3 | Plasma Concentration of CBD-Mono-VHS, Average ([4]; 24 hr): 0.9 | Plasma Concentration of CBD-Mono-VHS ([4]; 24 hr): 0.0 and 2.5 and 2.6
